For three compounds, MIC results are on record in US4082760A, “Derivatives of 2H,3H-benzimidazo(1,2-b)oxazole” (Italchemi S.p.A. Istituto Chimico Farmaceutico, priority 1975, dated 1978).

Holding throughout (assay): MIC of antibiotics alone or mixed with equimolar compound, beta-lactamase-producing germs
Common to all, as to type: cell-based

One assay has as its system Escherichia Coli R3. Particulars: combinations: equimolar quantities. The source says:
(§1) The capacity of the products of general formula (I) to compete with the action of the beta-lactamase may be shown by comparing the minimum inhibiting concentrations (MIC) of some penicillins and cephalosporins when mixed with equimolar quantities of the products of general formula I and when not so mixed, in relation to pathogenic germs which produce beta-lactamase.

Another assay has as its system Protetts mirabilis. The conditions noted are these: Protetts mirabilis (strain number not given); combinations: equimolar quantities.
Text: as §1

A further assay deals with Escherichia Coli R9. Particulars: combinations: equimolar quantities.
Text: as §1

The test system of the next assay is Protetts mirabilis R2. Particulars: combinations: equimolar quantities.
Text: as §1

The next assay relates to Escherichia Coli R8. The conditions noted are these: combinations: equimolar quantities.
Text: as §1

For another assay, the system named is Protetts mirabilis R7. Particulars: combinations: equimolar quantities.
Text: as §1

Another assay concerns Protetts Rettgeri R5. Particulars: combinations: equimolar quantities.
Text: as §1

Assay [1] has as its system Pseudomonas Aeruginosa R4. Particulars: combinations: equimolar quantities.
Text: as §1

Assay [2] deals with Pseudomonas Aeruginosa R1. The conditions noted are these: combinations: equimolar quantities.
Text: as §1

Turning to `CC1(C)S[C@@H]2[C@H](NC(=O)[C@H](N)c3ccccc3)C(=O)N2[C@H]1C(=O)O` [Ampicillin], the MIC is recorded as 1000 γ/cc in the assay on Escherichia Coli R3; 1000 γ/cc in the assay on Protetts mirabilis; 500 γ/cc in the assay on Escherichia Coli R9; 1000 γ/cc with Protetts mirabilis R2; 500 γ/cc in the assay with Escherichia Coli R8; 1000 γ/cc in the assay with Protetts mirabilis R7. Further, the MIC (in the assay with Protetts Rettgeri R5; in assay [1]) was 1000 γ/cc throughout.

Take `O=C(Cc1cccs1)N[C@@H]1C(=O)N2C(C(=O)[O-])=C(C[n+]3ccccc3)CS[C@H]12` [Cephaloridine]: in assay [2], the MIC was 1000 γ/cc.

Consider `CC(=O)OCC1=C(C(=O)O)N2C(=O)[C@@H](NC(=O)Cc3cccs3)[C@H]2SC1` [Cephalothin], for which the MIC (with Escherichia Coli R9; in [1]) was 1000 γ/cc each time.
